“And” between values parts separate entries of the source, which are not always exact repeats. Equal entries are not always repeated. Where two headings read alike, the source gives them in different places.
Key:
HIPK4 = HIPK4 (Homo sapiens (Human), UniProt Q8NE63); assay: KINOMEscan; assay type: binding; settings: HIPK4, 10000 nM; read-out: Percent Control
PIP5K1A = PIP5K1A (Homo sapiens (Human), UniProt Q99755); assay: KINOMEscan; assay type: binding; settings: 10000 nM, read-out: Percent Control
MST3 = MST3 (Homo sapiens (Human), UniProt Q9Y6E0); assay: KINOMEscan; assay type: binding; settings: MST3, 10000 nM; read-out: Percent Control
GRK2 = GRK2 (Homo sapiens (Human), UniProt P25098); assay: KINOMEscan; assay type: binding; settings: GRK2, 10000 nM; read-out: Percent Control
[1] = biological target: ABL1(M351T)-phosphorylated (Homo sapiens (Human), UniProt P00519, M351T); assay: KINOMEscan; assay type: binding; settings: 10000 nM, read-out: Percent Control
PFCDPK1(P. falciparum) = PFCDPK1(P. falciparum) (Plasmodium falciparum (isolate 3D7), UniProt P62344); assay: KINOMEscan; assay type: binding; settings: 10000 nM, read-out: Percent Control
NIK = NIK (Homo sapiens (Human), UniProt Q99558); assay: KINOMEscan; assay type: binding; settings: 10000 nM, read-out: Percent Control
PTK2 (FAK) = PTK2 (FAK) (Homo sapiens (Human), UniProt Q05397); assay: Z′-LYTE kinase assay (SelectScreen Biochemical Kinase Profiling), enzymatic IC50
PTK2 (FAK), sequence (Q05397 whole entry): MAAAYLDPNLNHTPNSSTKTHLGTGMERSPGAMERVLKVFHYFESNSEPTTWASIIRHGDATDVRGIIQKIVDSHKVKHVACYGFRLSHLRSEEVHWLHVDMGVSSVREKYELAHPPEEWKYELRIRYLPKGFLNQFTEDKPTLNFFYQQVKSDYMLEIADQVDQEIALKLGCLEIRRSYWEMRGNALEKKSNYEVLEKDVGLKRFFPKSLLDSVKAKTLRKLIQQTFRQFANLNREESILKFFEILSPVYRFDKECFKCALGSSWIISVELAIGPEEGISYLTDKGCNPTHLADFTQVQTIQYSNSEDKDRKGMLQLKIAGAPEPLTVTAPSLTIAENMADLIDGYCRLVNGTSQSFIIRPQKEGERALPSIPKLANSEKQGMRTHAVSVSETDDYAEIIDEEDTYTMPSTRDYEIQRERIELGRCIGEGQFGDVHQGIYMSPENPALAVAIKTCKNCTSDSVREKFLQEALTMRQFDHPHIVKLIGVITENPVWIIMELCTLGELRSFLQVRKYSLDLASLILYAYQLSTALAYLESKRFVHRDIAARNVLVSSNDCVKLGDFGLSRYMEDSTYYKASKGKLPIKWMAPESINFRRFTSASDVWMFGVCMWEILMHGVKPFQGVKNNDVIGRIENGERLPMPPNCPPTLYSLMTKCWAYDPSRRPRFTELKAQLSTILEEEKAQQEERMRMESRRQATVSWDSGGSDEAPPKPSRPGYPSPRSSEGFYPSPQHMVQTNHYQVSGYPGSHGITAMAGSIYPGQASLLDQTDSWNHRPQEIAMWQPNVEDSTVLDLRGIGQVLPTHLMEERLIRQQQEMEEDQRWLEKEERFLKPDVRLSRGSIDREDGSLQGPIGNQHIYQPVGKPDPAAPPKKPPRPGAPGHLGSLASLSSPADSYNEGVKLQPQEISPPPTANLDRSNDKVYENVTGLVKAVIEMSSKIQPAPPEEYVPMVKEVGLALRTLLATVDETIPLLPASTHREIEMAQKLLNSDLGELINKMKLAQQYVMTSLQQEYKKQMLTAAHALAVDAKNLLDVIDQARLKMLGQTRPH
Method: Enzymatic IC50 data was obtained through ThermoFisher Scientific SelectScreen™ Biochemical Kinase Profiling Service, using a Z′-LYTE™ kinase-specific assay, as described below.
The test compounds were screened in 1% dimethyl sulfoxide (DMSO) (final) in the well. For 10 point titrations, 3-fold serial dilutions were conducted from the starting concentration.
All peptide/kinase mixtures were diluted to a 2× working concentration in the appropriate kinase buffer (see section kinase specific assay conditions for a complete description).
All ATP solutions were diluted to a 4× working concentration in kinase buffer (50 mM 4-(2-hydroxyethyl)-1-piperazineethanesulfonic acid (HEPES) pH 7.5, 0.01% BRIJ-35, 10 mM MgCl2, 1 mM ethylene glycol-bis(β-aminoethyl ether)-N,N,N′,N′-tetraacetic acid (EGTA)). ATP Km apparent was previously determined using a Z′-LYTE assay.
The development reagent was diluted in development buffer (see section kinase-specific assay conditions—direct and cascade for a complete description).
Using a bar-coded Corning, low volume NBS, black 384-well plate (Corning Cat. #4514), 100 nL of 100× test compound in 100% DMSO was added. […] The plate was then shaken for 30 seconds and held at room temperature for a 60 minute kinase reaction incubation period. At which point 5 μL of development reagent solution was added and the plate was shaken for 30 seconds. The plate was held again at room temperature for a 60 minute development reaction incubation period and then read on a fluorescence plate reader and analyzed.
The 2×PTK2 (FAK)/Tyr 07 mixture was prepared in 50 mM HEPES pH 7.5, 0.01% BRIJ-35, 10 mM MgCl2, 1 mM EGTA. […] After the 1 hour kinase reaction incubation period, 5 μL of a 1:16 dilution of development reagent B was added.
SelectScreen Kinase Profiling Service uses XLfit from ID Business Solutions (IDBS). The dose response curve was curve fit to model number 205 (sigmoidal dose-response model).

LYN = LYN (Homo sapiens (Human), UniProt P07948); assay: KINOMEscan; assay type: binding; settings: 10000 nM, read-out: Percent Control
HIPK2 = HIPK2 (Homo sapiens (Human), UniProt Q9H2X6); assay: KINOMEscan; assay type: binding; settings: HIPK2, 10000 nM; read-out: Percent Control
MARK4 = MARK4 (Homo sapiens (Human), UniProt Q96L34); assay: KINOMEscan; assay type: binding; settings: MARK4, 10000 nM; read-out: Percent Control
IKK-alpha = IKK-alpha (Homo sapiens (Human), UniProt O15111); assay: KINOMEscan; assay type: binding; settings: 10000 nM, read-out: Percent Control
GRK4 = GRK4 (Homo sapiens (Human), UniProt P32298); assay: KINOMEscan; assay type: binding; settings: GRK4, 10000 nM; read-out: Percent Control
EPHA3 = EPHA3 (Homo sapiens (Human), UniProt P29320); assay: KINOMEscan; assay type: binding; settings: EPHA3, 10000 nM; read-out: Percent Control
BTK = BTK (Homo sapiens (Human), UniProt Q06187); assay: KINOMEscan; assay type: binding; settings: 10000 nM, read-out: Percent Control
BTK, sequence (Q06187 whole entry): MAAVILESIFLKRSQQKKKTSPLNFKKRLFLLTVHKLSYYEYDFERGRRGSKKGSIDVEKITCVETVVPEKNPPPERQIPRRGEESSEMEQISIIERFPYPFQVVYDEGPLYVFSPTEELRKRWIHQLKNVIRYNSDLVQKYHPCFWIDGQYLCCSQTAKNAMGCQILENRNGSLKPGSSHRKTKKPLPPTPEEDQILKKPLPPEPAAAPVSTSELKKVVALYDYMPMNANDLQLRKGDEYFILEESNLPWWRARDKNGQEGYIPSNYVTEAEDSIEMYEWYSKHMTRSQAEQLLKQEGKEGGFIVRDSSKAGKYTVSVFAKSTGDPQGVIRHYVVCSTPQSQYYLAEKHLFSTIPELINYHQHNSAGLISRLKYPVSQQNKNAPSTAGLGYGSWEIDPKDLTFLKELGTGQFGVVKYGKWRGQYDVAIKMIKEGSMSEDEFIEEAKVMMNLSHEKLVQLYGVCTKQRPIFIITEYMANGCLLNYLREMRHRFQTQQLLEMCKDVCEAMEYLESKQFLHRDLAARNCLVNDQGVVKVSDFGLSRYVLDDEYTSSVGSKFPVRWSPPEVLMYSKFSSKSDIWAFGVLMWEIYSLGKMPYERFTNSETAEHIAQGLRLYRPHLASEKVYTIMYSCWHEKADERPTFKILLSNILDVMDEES

ZAP70 = ZAP70 (Homo sapiens (Human), UniProt P43403); assay: KINOMEscan; assay type: binding; settings: ZAP70, 10000 nM; read-out: Percent Control
[2] = biological target: RSK1(Kin.Dom.2-C-terminal) (Homo sapiens (Human), UniProt Q15418); assay: KINOMEscan; assay type: binding; settings: 10000 nM, read-out: Percent Control
RSK1(Kin.Dom.2-C-terminal), sequence (Q15418 418-675): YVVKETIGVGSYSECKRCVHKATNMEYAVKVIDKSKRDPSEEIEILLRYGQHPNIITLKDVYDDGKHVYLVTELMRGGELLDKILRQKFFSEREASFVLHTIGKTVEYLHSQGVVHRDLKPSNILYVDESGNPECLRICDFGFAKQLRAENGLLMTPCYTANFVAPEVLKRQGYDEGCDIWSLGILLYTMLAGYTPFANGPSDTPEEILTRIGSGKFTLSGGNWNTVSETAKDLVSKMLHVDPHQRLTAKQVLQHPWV

GRK1 = GRK1 (Homo sapiens (Human), UniProt Q15835); assay: KINOMEscan; assay type: binding; settings: GRK1, 10000 nM; read-out: Percent Control
PHKG2 = PHKG2 (Homo sapiens (Human), UniProt P15735); assay: KINOMEscan; assay type: binding; settings: PHKG2, 10000 nM; read-out: Percent Control
PHKG2, sequence (P15735 whole entry): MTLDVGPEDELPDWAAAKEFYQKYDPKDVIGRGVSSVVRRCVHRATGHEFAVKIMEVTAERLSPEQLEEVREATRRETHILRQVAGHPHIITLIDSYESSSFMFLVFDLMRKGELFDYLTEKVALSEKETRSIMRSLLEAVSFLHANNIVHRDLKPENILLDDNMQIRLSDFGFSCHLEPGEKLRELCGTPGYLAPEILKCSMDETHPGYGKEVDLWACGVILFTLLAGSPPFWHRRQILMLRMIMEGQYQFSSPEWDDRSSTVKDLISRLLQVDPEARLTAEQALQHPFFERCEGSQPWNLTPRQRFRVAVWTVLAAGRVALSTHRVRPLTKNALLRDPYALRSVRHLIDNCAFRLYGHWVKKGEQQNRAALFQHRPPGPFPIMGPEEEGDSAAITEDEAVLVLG

EPHB1 = EPHB1 (Homo sapiens (Human), UniProt P54762); assay: KINOMEscan; assay type: binding; settings: EPHB1, 10000 nM; read-out: Percent Control
TAOK1 = TAOK1 (Homo sapiens (Human), UniProt Q7L7X3); assay: KINOMEscan; assay type: binding; settings: TAOK1, 10000 nM; read-out: Percent Control
TAOK1, sequence (Q7L7X3 whole entry): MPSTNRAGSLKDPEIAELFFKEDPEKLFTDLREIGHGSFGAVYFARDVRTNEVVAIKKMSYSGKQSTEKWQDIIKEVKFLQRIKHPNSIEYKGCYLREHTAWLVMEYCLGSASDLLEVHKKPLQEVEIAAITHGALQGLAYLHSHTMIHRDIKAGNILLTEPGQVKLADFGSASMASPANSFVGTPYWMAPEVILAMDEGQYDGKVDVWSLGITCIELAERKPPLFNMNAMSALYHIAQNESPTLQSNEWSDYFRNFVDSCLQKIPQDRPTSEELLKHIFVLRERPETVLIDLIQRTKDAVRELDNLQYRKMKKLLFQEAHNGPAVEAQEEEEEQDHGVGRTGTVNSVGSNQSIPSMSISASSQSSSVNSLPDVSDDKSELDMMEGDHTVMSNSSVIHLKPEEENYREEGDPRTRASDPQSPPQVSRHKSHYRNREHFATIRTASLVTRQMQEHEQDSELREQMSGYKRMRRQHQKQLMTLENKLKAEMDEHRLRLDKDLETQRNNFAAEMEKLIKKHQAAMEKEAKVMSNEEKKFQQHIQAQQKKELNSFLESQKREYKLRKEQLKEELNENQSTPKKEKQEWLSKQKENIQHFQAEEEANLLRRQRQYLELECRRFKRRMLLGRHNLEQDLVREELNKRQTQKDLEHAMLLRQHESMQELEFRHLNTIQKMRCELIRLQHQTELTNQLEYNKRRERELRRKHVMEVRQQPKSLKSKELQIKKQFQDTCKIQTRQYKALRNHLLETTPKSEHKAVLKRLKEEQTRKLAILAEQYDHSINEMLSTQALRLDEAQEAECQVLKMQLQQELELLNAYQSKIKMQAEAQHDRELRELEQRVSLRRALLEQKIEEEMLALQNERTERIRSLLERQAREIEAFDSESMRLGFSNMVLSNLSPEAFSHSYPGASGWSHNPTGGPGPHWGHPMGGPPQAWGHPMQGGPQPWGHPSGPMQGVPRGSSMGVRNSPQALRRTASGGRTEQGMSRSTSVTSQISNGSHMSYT

p38-alpha = p38-alpha (Homo sapiens (Human), UniProt Q16539); assay: KINOMEscan; assay type: binding; settings: 10000 nM, read-out: Percent Control
p38-alpha, sequence (Q16539 whole entry): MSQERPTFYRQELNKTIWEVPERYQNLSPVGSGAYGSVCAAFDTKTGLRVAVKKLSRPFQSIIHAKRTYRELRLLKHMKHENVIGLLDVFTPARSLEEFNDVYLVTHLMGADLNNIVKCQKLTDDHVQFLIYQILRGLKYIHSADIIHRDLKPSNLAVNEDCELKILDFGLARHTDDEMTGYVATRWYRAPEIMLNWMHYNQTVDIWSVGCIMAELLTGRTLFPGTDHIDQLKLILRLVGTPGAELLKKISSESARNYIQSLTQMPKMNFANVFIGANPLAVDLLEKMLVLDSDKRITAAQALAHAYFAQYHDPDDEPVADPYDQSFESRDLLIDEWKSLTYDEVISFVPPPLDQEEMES

CHEK1 = CHEK1 (Homo sapiens (Human), UniProt O14757); assay: KINOMEscan; assay type: binding; settings: CHEK1, 10000 nM; read-out: Percent Control
MLK1 = MLK1 (Homo sapiens (Human), UniProt P80192); assay: KINOMEscan; assay type: binding; settings: MLK1, 10000 nM; read-out: Percent Control
TAOK2 = TAOK2 (Homo sapiens (Human), UniProt Q9UL54); assay: KINOMEscan; assay type: binding; settings: TAOK2, 10000 nM; read-out: Percent Control
TAOK2, sequence (Q9UL54 whole entry): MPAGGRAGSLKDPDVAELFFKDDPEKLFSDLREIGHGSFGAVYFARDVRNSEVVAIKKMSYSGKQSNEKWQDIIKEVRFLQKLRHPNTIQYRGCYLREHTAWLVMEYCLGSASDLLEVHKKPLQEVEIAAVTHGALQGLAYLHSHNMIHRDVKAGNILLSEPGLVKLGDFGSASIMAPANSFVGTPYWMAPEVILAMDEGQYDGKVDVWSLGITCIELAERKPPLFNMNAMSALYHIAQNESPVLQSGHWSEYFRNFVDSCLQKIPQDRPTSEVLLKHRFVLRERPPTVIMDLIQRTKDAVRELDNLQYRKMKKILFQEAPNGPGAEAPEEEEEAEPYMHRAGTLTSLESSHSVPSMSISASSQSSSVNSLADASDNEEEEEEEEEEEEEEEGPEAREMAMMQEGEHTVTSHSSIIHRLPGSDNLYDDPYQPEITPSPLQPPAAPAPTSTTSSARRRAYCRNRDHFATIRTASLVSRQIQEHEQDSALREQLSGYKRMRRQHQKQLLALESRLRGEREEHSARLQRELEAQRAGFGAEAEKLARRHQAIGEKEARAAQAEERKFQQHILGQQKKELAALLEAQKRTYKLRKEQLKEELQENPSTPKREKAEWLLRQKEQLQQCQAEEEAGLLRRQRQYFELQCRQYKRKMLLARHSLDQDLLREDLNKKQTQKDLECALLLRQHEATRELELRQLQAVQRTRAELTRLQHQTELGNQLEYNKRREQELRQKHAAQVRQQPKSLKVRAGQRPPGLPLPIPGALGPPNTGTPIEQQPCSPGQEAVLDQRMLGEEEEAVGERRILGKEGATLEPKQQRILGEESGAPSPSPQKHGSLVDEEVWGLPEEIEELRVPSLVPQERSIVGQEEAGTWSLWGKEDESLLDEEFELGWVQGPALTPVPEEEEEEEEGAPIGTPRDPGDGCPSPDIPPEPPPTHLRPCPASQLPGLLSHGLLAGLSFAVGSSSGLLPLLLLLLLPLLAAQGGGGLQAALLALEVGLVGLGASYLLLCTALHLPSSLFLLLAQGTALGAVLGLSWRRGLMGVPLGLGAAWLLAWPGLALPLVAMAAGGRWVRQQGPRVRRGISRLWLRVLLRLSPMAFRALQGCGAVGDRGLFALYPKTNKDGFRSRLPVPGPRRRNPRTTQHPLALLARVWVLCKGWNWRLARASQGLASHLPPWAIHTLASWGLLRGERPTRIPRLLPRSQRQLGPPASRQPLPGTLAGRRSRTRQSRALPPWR

[3] = enzymatic, Z′-LYTE, read-out: FAK IC50

`COc1cc(N2CCC(N3CCN(C)CC3)CC2)ccc1Nc1ncc2c(n1)N(C)c1sc(C)nc1C(=O)N2` [Compound 3, 6-((2-methoxy-4-(4-(4-methylpiperazin-1-yl)piperidin-1-yl)phenyl)amino)-2,4-dimethyl-4,9-dihydro-10H-pyrimido[5,4-b]thiazolo[5,4-e][1,4]diazepin-10-one] was tested, and the remaining binding at 10 µM (HIPK4) was 82%, the remaining binding at 10 µM (PIP5K1A) was 100% and the remaining binding at 10 µM (MST3) was 89%. The remaining binding at 10 µM (GRK2) was 100%, the remaining binding at 10 µM [1] was 19% and the remaining binding at 10 µM (PFCDPK1(P. falciparum)) was 100%. For the same molecule, the remaining binding at 10 µM (NIK) was 85%, the IC50 (PTK2 (FAK); [3]) was 62 nM and 62.2 nM and the remaining binding at 10 µM (LYN) was 69%. The remaining binding at 10 µM (HIPK2) was 100%, the remaining binding at 10 µM (MARK4) was 83% and the remaining binding at 10 µM (IKK-alpha) was 100%. It also gave a remaining binding at 10 µM (GRK4) of 72%, a remaining binding at 10 µM (EPHA3) of 99% and a remaining binding at 10 µM (BTK) of 100%. It also gave a remaining binding at 10 µM (ZAP70) of 100%, a remaining binding at 10 µM [2] of 81% and a remaining binding at 10 µM (GRK1) of 86%. It also gave a remaining binding at 10 µM (PHKG2) of 69%, a remaining binding at 10 µM (EPHB1) of 48% and a remaining binding at 10 µM (TAOK1) of 100%. The remaining binding at 10 µM (p38-alpha) was 75%, the remaining binding at 10 µM (CHEK1) was 79% and the remaining binding at 10 µM (MLK1) was 94%. The remaining binding at 10 µM (TAOK2) was 95%.

Work on `COc1cc(N2CCC(N3CCN(C)CC3)CC2)ccc1Nc1ncc2c(n1)N(C)c1sc(C)nc1C(=O)N2C` [Compound 5, 6-((2-methoxy-4-(4-(4-methylpiperazin-1-yl)piperidin-1-yl)phenyl)amino)-2,4,9-trimethyl-4,9-dihydro-10H-pyrimido[5,4-b]thiazolo[5,4-e][1,4]diazepin-10-one] yielded a remaining binding at 10 µM (HIPK4) of 100%, a remaining binding at 10 µM (PIP5K1A) of 100% and a remaining binding at 10 µM (MST3) of 90%. It also gave a remaining binding at 10 µM (GRK2) of 100%, a remaining binding at 10 µM [1] of 95% and a remaining binding at 10 µM (PFCDPK1(P. falciparum)) of 99%. It also gave a remaining binding at 10 µM (NIK) of 93%, an IC50 (PTK2 (FAK); FAK, Invitrogen, read-out: Biochemical IC50) of 20.2 ± 1.9 nM and an IC50 (PTK2 (FAK); [3]) of 18.3 nM. For the same molecule, the remaining binding at 10 µM (LYN) was 100%, the remaining binding at 10 µM (HIPK2) was 100% and the remaining binding at 10 µM (MARK4) was 87%. It also gave a remaining binding at 10 µM (IKK-alpha) of 100%, a remaining binding at 10 µM (GRK4) of 97% and a remaining binding at 10 µM (EPHA3) of 100%. It also gave a remaining binding at 10 µM (BTK) of 100%, a remaining binding at 10 µM (ZAP70) of 100% and a remaining binding at 10 µM [2] of 55%. It also gave a remaining binding at 10 µM (GRK1) of 81%, a remaining binding at 10 µM (PHKG2) of 38% and a remaining binding at 10 µM (EPHB1) of 93%. For the same molecule, the remaining binding at 10 µM (TAOK1) was 80%, the remaining binding at 10 µM (p38-alpha) was 93% and the remaining binding at 10 µM (CHEK1) was 59%. It also gave a remaining binding at 10 µM (MLK1) of 41% and a remaining binding at 10 µM (TAOK2) of 93%.

Reference: patent US12365696B2, “Small-molecule focal adhesion kinase (FAK) inhibitors” (DANA-FARBER CANCER INSTITUTE, INC., priority 2019, dated 2025)
